Read-outs that look alike come from different tables or passages of the source.
Tests used:
[1] = tested on: Hep-G2 (human liver cancer-derived cell line); assay: XTT assay, effect on cell survival (Hep-G2); format: cell-based
Description: (§1) The presence or the absence of the selective cytotoxic activity of the test substance (cellobiose) was examined on various established cell lines.
(§2) Cell species: HeLa (human cervical cancer-derived cell line), HaCaT (human-derived immortalized keratinocyte) and Hep-G2 (human liver cancer-derived cell line)
(§3) (Thawing and Passage Culture of Cells) • (1) HeLa, HaCaT, and Hep-G2 cells were thawed and then cultured in various specialized media. • (2) Cells were passaged 2 to 3 times. • (3) Cells that had recovered their growth capacity were used for the test. […]

[2] = tested on: HaCaT (human-derived immortalized keratinocyte); assay: XTT assay, effect on cell survival (HaCaT); format: cell-based
Description: as §1, §2, §3

[3] = tested on: HeLa (human cervical cancer-derived cell line); assay: XTT assay, effect on cell survival (HeLa); format: cell-based
Description: as §1, §2, §3

[4] = tested on: DMBA-induced breast cancer; format: in vivo; settings: for changes in body weight: vs control; for general conditions: deaths: 15 rats; for day from which development of tumors was confirmed: control: day 35
Protocol: The antitumor effects of cellobiose were examined using the rat DMBA-induced breast cancer model. Specifically, 7-week-old female rats were grouped using body weight as an index, and then 7,12-dimethylbenz[a]anthracene (DMBA) (20 mg/mL/rat) was forcibly administered orally. Two doses of the test substance (4 and 40 mg/kg/day) were forcibly administered orally once a day from the day after grouping for 12 consecutive weeks.
Fifty-two 6-week-old female rats, Crl: CD (SD) (SPF), were purchased from Charles River Laboratories, Japan Inc. on Mar. 28, 2012 (Number of rats ordered: 50).
Animals, for which no abnormalities had been confirmed as a result of observation of general conditions during the quarantine and conditioning periods, were selected and then grouped by the stratified continuous randomization method using body weight as an index based on the following table of group composition (Table 1). The remaining animals were excluded from the test groups on the day of grouping and then disposed of after excessive euthanization with ether.
DMBA was weighed to the required amount using an electronic even Sartorius Laboratory balance (SARTORIUS K.K.). The weighed DMBA was added to a beaker containing sesame oil, and then the solution was stirred using a mighty magnetic stirrer (Koike precision instruments) until the DMBA was completely dissolved. After dissolution, the solution was transferred to a volumetric graduated cylinder and then diluted to a concentration of 20 mg/mL. Upon preparation, countermeasures were taken against chemical hazards to avoid inhalation and adhesion to skin by wearing masks, safety eyeglasses, and gloves. Preparation was performed before use. Any carcinogen remaining after administration was treated as medical waste.
The carcinogen was administered to each animal after grouping. Specifically, the carcinogen was forcibly administered orally at a dosage of 1 mL/animal using sonde for oral administration (disposable sonde for oral administration, FUCHIGAMI) and glass syringes (disposable syringes, TERUMO Corporation). Administration was performed using masks, safety eyeglasses and gloves in order to avoid inhalation and adhesion to skin.
Next, the test substance was weighed to the required amount using an electronic Sartorius Analytic balance (SARTORIUS K.K.), and then dissolved in the medium. The resultant was transferred to a volumetric graduated cylinder, and then diluted to concentrations of 0.8 mg/mL and 8.0 mg/mL. Preparation was performed before use. The solution of the test substance (to be administered) that had remained after administration was diluted with a large volume of tap water and then discarded.
Administration of the test substance began the day after grouping (designated as day 1). The test substance was forcibly administered orally once a day for 12 consecutive weeks.
Upon administration, the test substance solution was forcibly administered orally at 5 mL/kg/day using sonde for oral administration (disposable sonde for oral administration, FUCHIGAMI) and glass syringes (disposable syringes, TERUMO Corporation) according to the table of group composition. The fluid volume administered was calculated based on the body weight measured on the day closest to the date of administration.
After administration of the carcinogen, the general conditions were observed every day. Body weight was measured once a week.
When the development of tumors was confirmed, the number of tumors developed in each animal was measured, and then the tumor volume estimate (mm^3) of each tumor was calculated once a week. In addition, the tumor volume estimate (mm^3) of each tumor was found by shaving the hair around the relevant tumor, measuring the tumor size (major axis “a” and minor axis “b” (mm)) using a vernier caliper, calculating according to the following formula, and then finding the sum of tumor volume estimates of the tumors.
Tumor volume estimate (mm^3) of each tumor=0.5 ×a×b^2 […]

HeLa cells = assay: Confirmation of the performance of cell proliferation kit (XTT) with HeLa; format: cell-based, human; settings: 500 μM, 3 hours
Protocol: (Confirmation of the Performance of Cell Proliferation Kit (XTT)) • (1) HeLa cells were seeded in 16 wells of a 96-well plate at 1×10^4 cells/100 μL/well. • (2) Cells were cultured for 24 hours in a CO2 incubator. • (3) Dexamethasone was added at […] concentrations of 0 (control), 10, 100, and 500 μM (N=4). • (4) After addition, cells were cultured for 3 hours in the CO2 incubator. • (5) 50 μL of an XTT reagent was added. • (6) After addition, cells were cultured for 3 hours in the CO2 incubator. • (7) Absorbance was measured at 450 nm to 500 nm (ref.: 630 nm to 690 nm).

[5] = any concentration (0.001-10 mg/mL), vs cells before addition

## O=C[C@H](O)[C@@H](O)[C@H](O[C@@H]1O[C@H](CO)[C@@H](O)[C@H](O)[C@H]1O)[C@H](O)CO [cellobiose]
[1]; Hep-G2, any concentration (0.001-10 mg/mL), vs cells before addition
  dead cells or cell morphological changes (photomicrographs): no influence of other factors such as an increase in dead cells or cell morphological changes
[1]; Hep-G2, high concentration of test substance, 3 hours, XTT
  decrease in survival rate (maximum): ~15%
[2]; 10 mg/mL, 3 hours, XTT
  change in survival rate compared to the control: almost no change in survival rate
[2]; [5]
  dead cells or cell morphological changes (photomicrographs): no influence of other factors such as an increase in dead cells or cell morphological changes
[3]; 10 mg/mL, 3 hours, XTT
  change in survival rate compared to the control: almost no change in survival rate
[3]; [5]
  dead cells or cell morphological changes (photomicrographs): no influence of other factors such as an increase in dead cells or cell morphological changes
[4]; 4 and 40 mg/kg/day oral, 12 weeks
  effect on development of breast cancer induced by DMBA (overall conclusion): suppresses the development of breast cancer that is induced by carcinogenic DMBA
[4]; high-dose group 40 mg/kg/day oral once a day, 12 weeks
  changes in body weight: very similar changes to the control group
[4]; high-dose group 40 mg/kg/day oral
  general conditions: deaths: one death was confirmed on day 76
[4]; high-dose group 40 mg/kg/day
  day from which development of tumors was confirmed: 49 days
[4]; high-dose group 40 mg/kg/day, day 49
  number of animals having developed tumors: 2
[4]; high-dose group 40 mg/kg/day, day 84
  number of animals having developed tumors: 11
[4]; high-dose group 40 mg/kg/day, days 42 and 49
  tumor volume estimate vs control: significantly lower than those of the control group
[4]; high-dose group 40 mg/kg/day, until day 42
  number of animals having developed tumors: no development of tumors was confirmed until day 42
[4]; low-dose group 4 mg/kg/day oral once a day, 12 weeks
  changes in body weight: very similar changes to the control group
[4]; low-dose group 4 mg/kg/day oral
  general conditions: deaths: one death was confirmed on day 4
[4]; low-dose group 4 mg/kg/day, autopsy after 12 weeks
  wet weight of tumor vs control: very similar to those of the control group
[4]; low-dose group 4 mg/kg/day
  day from which development of tumors was confirmed: 49 days
[4]; low-dose group 4 mg/kg/day, day 42
  tumor volume estimate vs control: significantly lower than those of the control group
[4]; low-dose group 4 mg/kg/day, day 49
  number of animals having developed tumors: 4
[4]; low-dose group 4 mg/kg/day, day 84
  number of animals having developed tumors: 11
[4]; low-dose group 4 mg/kg/day, until day 42
  number of animals having developed tumors: no development of tumors was confirmed until day 42

## C[C@@H]1C[C@H]2[C@@H]3CCC4=CC(=O)C=C[C@]4(C)[C@@]3(F)[C@@H](O)C[C@]2(C)[C@@]1(O)C(=O)CO [dexamethasone]
HeLa cells
  decrease in survival rate: about 40%
